Measurements reported in patent US8106055B2, “Substituted amide compounds” (Gruenenthal GmbH, priority 2007, dated 2012).

Legend:
[1] = target: T1, human bradykinin 1 receptor (B1R) (Homo sapiens, UniProt P46663); assay: Functional investigation on the human bradykinin 1 receptor (B1R), Ca2+ FLIPR assay in CHO K1 hB1R cells; assay type: cell-based; conditions: CHO-K1, B1R antagonism human; test substance 10 μM; Ca2+ FLIPR, CHO K1 hB1R cells; read-out: B1R Ant. h [10 μM] % Inhibition
T1 construct: expressed in transfected cells; host or cells: CHO K1 cells
T1 sequence (P46663 1-353): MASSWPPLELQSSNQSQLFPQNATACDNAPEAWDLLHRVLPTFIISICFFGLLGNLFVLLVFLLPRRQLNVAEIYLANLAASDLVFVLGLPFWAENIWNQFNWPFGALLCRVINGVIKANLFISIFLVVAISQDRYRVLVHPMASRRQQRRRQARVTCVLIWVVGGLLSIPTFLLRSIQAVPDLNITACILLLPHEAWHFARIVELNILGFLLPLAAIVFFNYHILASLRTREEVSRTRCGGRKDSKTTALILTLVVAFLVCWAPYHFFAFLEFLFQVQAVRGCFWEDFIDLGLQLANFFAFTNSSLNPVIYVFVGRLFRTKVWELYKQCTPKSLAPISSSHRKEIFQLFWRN
Outline: (§1)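 Peak Ca2+-dependent fluorescence in B1R-transfected CHO K1 cells measures antagonism of an EC80 agonist challenge given 10-20 min after compound. Agonist is Lys-Des-Arg9-bradykinin for human, Des-Arg9-bradykinin for rat receptor.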

[2] = target: T2, bradykinin 1 receptor (B1R) of the rat (Rattus norvegicus, UniProt P97583); assay: Functional investigation on the rat bradykinin 1 receptor (B1R), Ca2+ FLIPR assay in CHO K1 rB1R cells; assay type: cell-based; conditions: CHO-K1, B1R antagonism rat; test substance 10 μM; Ca2+ FLIPR, CHO K1 rB1R cells; read-out: B1R Ant. r [10 μM] % Inhibition
T2 construct: expressed in transfected cells; host or cells: CHO K1 cells
T2 sequence (P97583 1-337): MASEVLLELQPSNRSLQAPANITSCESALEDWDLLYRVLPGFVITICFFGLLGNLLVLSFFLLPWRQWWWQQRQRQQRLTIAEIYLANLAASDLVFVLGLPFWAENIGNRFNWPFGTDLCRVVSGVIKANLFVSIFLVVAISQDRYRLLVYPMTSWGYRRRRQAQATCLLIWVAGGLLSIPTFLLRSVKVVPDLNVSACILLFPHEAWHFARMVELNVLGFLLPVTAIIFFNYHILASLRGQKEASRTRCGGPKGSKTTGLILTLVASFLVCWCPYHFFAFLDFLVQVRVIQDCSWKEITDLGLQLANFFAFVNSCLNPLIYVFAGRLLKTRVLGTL
Outline: as §1

Row | SMILES | inhibition at 10 µM [1] [%] | inhibition at 10 µM [2] [%]
1 | CN(C)C(c1cccs1)C1CCC(NC(=O)COCCN(C)S(=O)(=O)c2cccc(C(F)(F)F)c2)CC1 (stereo not shown) [Example 152, N-(4-((dimethylamino)(thiophen-2-yl)methyl)cyclohexyl)-2-(2-(N-methyl-3-(trifluoromethyl)phenylsulfonamido)ethoxy)acetamide] | 16 | 4
2 | CN(C)C(c1ccccc1)C1CCC(NC(=O)COCCN(C)S(=O)(=O)c2ccc(Cl)cc2Cl)CC1 (stereo not shown) [Example 33, 2-(2-(2,4-dichloro-N-methylphenylsulfonamido)ethoxy)-N-(4-((dimethylamino)(phenyl)methyl)cyclohexyl)acetamide] | 77 | 9
3 | COc1ccc(S(=O)(=O)N2CCC(OCC(=O)NCC3CCC(C(c4ccccc4)N(C)C)CC3)C2)cc1OC (stereo not shown) [Example 22, 2-(1-(3,4-dimethoxyphenylsulfonyl)pyrrolidin-3-yloxy)-N-((4-((dimethylamino)(phenyl)methyl)cyclohexyl)methyl)acetamide] | 0 | 26
4 | COc1ccc(S(=O)(=O)N2CCC(OCC(=O)NC3CCC(C(c4cccs4)N(C)C)CC3)C2)cc1OC (stereo not shown) [Example 155, 2-(1-(3,4-dimethoxyphenylsulfonyl)pyrrolidin-3-yloxy)-N-(4-((dimethylamino)(thiophen-2-yl)methyl)cyclohexyl)acetamide] | -8 | 1
5 | COc1cc(C)c(S(=O)(=O)N2CCC(OCC(=O)NCC3CCC(C(c4ccccc4)N(C)C)CC3)CC2)c(C)c1C (stereo not shown) [Example 143, N-((4-((dimethylamino)(phenyl)methyl)cyclohexyl)methyl)-2-(1-(4-methoxy-2,3,6-trimethylphenylsulfonyl)piperidin-4-yloxy)acetamide] | 11 | 19
6 | Cc1ccc(S(=O)(=O)N2CCC(OCC(=O)NC3CCC(C(c4cccs4)N(C)C)CC3)C2)cc1 (stereo not shown) [Example 156, N-(4-((dimethylamino)(thiophen-2-yl)methyl)cyclohexyl)-2-(1-tosylpyrrolidin-3-yloxy)acetamide] | 5 | 20
7 | CN(C)C(c1ccccc1)C1CCC(CNC(=O)COCCN(C)S(=O)(=O)c2c(Cl)cc(Cl)cc2Cl)CC1 (stereo not shown) [Example 14, N-((4-((dimethylamino)(phenyl)methyl)cyclohexyl)methyl)-2-(2-(2,4,6-trichloro-N-methylphenylsulfonamido)ethoxy)acetamide] | 104 | 40
8 | CN(C)C(c1cccs1)C1CCC(CNC(=O)COC2CCCCC2N(C)S(=O)(=O)c2ccc(Cl)c(Cl)c2)CC1 (stereo not shown) [Example 31, 2-(2-(3,4-dichloro-N-methylphenylsulfonamido)cyclohexyloxy)-N-((4-((dimethylamino)(thiophen-2-yl)methyl)cyclohexyl)methyl)acetamide] | 10 | 11
9 | Cc1cc(C)c(S(=O)(=O)N2CCC(OCC(=O)NC3CCC(C(c4cccc(F)c4)N(C)C)CC3)C2)c(C)c1 (stereo not shown) [Example 140, N-(4-((dimethylamino)(3-fluorophenyl)methyl)cyclohexyl)-2-(1-(mesitylsulfonyl)pyrrolidin-3-yloxy)acetamide] | 43 | 30
10 | COc1ccc(S(=O)(=O)N2CCCCC2COCC(=O)NCC2CCC(C(c3cccc(F)c3)N(C)C)CC2)cc1 (stereo not shown) [Example 179, N-((4-((dimethylamino)(3-fluorophenyl)methyl)cyclohexyl)methyl)-2-((1-(4-methoxyphenylsulfonyl)piperidin-2-yl)methoxy)acetamide] | 65 | 67
11 | CN(C)C(c1cccs1)C1CCC(CCNC(=O)COC2CCN(S(=O)(=O)c3ccc(F)cc3)C2)CC1 (stereo not shown) [Example 138, N-(2-(4-((dimethylamino)(thiophen-2-yl)methyl)cyclohexyl)ethyl)-2-(1-(4-fluorophenylsulfonyl)pyrrolidin-3-yloxy)acetamide] | 2 | 30
12 | CN(C)C(c1ccccc1)C1CCC(NC(=O)COCCN(C)S(=O)(=O)c2c(F)c(F)c(F)c(F)c2F)CC1 (stereo not shown) [Example 136, N-(4-((dimethylamino)(phenyl)methyl)cyclohexyl)-2-(2-(2,3,4,5,6-pentafluoro-N-methylphenylsulfonamido)ethoxy)acetamide] | 87 | -2
13 | COc1ccc(S(=O)(=O)N2CCCCC2COCC(=O)NCC2CCC(C(c3ccccc3)N(C)C)CC2)cc1OC (stereo not shown) [Example 150, 2-((1-(3,4-Dimethoxyphenylsulfonyl)piperidin-2-yl)methoxy)-N-((4-((dimethylamino)(phenyl)methyl)cyclohexyl)methyl)acetamide] | 4 | 10
14 | COc1ccc(S(=O)(=O)N2CCC(OCC(=O)NCC3CCC(C(c4cccc(F)c4)N(C)C)CC3)C2)cc1OC (stereo not shown) [Example 184, 2-(1-(3,4-dimethoxyphenylsulfonyl)pyrrolidin-3-yloxy)-N-((4-((dimethylamino)(3-fluorophenyl)methyl)cyclohexyl)methyl)acetamide] | -29 | 38
15 | COc1cc(C)c(S(=O)(=O)N(C)CCOCC(=O)NCCC2CCC(C(c3cccc(F)c3)N(C)C)CC2)c(C)c1 (stereo not shown) [Example 197, N-(2-(4-((dimethylamino)(3-fluorophenyl)methyl)cyclohexyl)ethyl)-2-(2-(4-methoxy-N,2,6-trimethylphenylsulfonamido)ethoxy)acetamide] | 104 | 105
16 | COc1cc(C)c(S(=O)(=O)N(CCOCC(=O)NCC2CCC(C(c3ccccc3)N(C)C)CC2)Cc2ccccc2)c(C)c1 (stereo not shown) [Example 148, 2-(2-(N-benzyl-4-methoxy-2,6-dimethylphenylsulfonamido)ethoxy)-N-((4-((dimethylamino)(phenyl)methyl)cyclohexyl)methyl)acetamide] | 92 | 46
17 | CN(C)C(c1ccccc1)C1CCC(CNC(=O)COCCN(C)S(=O)(=O)c2c(Cl)cccc2Cl)CC1 (stereo not shown) [Example 13, 2-(2-(2,6-dichloro-N-methylphenylsulfonamido)ethoxy)-N-((4-((dimethylamino)(phenyl)methyl)cyclohexyl)methyl)acetamide] | 99 | 44
18 | COc1ccc(S(=O)(=O)N2CCCCC2COCC(=O)NCCC2CCC(C(c3cccs3)N(C)C)CC2)cc1 (stereo not shown) [Example 30, N-(2-(4-((dimethylamino)(thiophen-2-yl)methyl)cyclohexyl)ethyl)-2-((1-(4-methoxyphenylsulfonyl)piperidin-2-yl)methoxy)acetamide] | 81 | 72
19 | CN(C)C(c1cccc(F)c1)C1CCC(CNC(=O)COC2CCCCC2N(C)S(=O)(=O)c2ccc(Cl)c(Cl)c2)CC1 (stereo not shown) [Example 164, 2-(2-(3,4-dichloro-N-methylphenylsulfonamido)cyclohexyloxy)-N-((4-((dimethylamino)(3-fluorophenyl)methyl)cyclohexyl)methyl)acetamide] | 14 | 17
20 | CN(C)C(c1cccc(F)c1)C1CCC(CNC(=O)COC2CCN(S(=O)(=O)c3cccc(C(F)(F)F)c3)C2)CC1 (stereo not shown) [Example 170, N-((4-((dimethylamino)(3-fluorophenyl)methyl)cyclohexyl)methyl)-2-(1-(3-(trifluoromethyl)phenylsulfonyl)pyrrolidin-3-yloxy)acetamide] | 8 | 38
21 | Cc1cc(C)c(S(=O)(=O)N2CCC(OCC(=O)NCC3CCC(C(c4cccs4)N(C)C)CC3)C2)c(C)c1 (stereo not shown) [Example 27, N-((4-((dimethylamino)(thiophen-2-yl)methyl)cyclohexyl)methyl)-2-(1-(mesitylsulfonyl)pyrrolidin-3-yloxy)acetamide] | 60 | 60
22 | COc1ccc(S(=O)(=O)N2CCCC2COCC(=O)NC2CCC(C(c3cccs3)N(C)C)CC2)cc1 (stereo not shown) [Example 162, N-(4-((dimethylamino)(thiophen-2-yl)methyl)cyclohexyl)-2-((1-(4-methoxyphenylsulfonyl)pyrrolidin-2-yl)methoxy)acetamide] | -5 | 21
23 | CN(C)C(c1cccs1)C1CCC(NC(=O)COCCN(C)S(=O)(=O)c2ccc(F)cc2)CC1 (stereo not shown) [Example 10, N-(4-((dimethylamino)(thiophen-2-yl)methyl)cyclohexyl)-2-(2-(4-fluoro-N-methylphenylsulfonamido)ethoxy)acetamide] | -17 | 9
